The results in this text go back to PubChem BioAssay AID326 (DTP/NCI, 2004).

Each structure is given as a SMILES string. “And” between values parts separate entries of the source, which are not always exact repeats. Identical values can stand only once. Inconclusive results and toxic doses are left out.

The subject of this test is CD2F1 mice, P388/DHAQ leukemia ip, median survival T/C. Put plainly: NCI In Vivo Anticancer Drug Screen. Data for tumor model P388 Leukemia resistant to Dihydroxy Anthracenedione; NSC 299195 (intraperitoneal) in CD2F1 (CDF1) mice. To be noted: endpoint: median survival time, higher = longer survival. On the procedure: The antitumor activity of compounds was measured in mice bearing transplantable tumors. Survival or tumor size were measured and the results are expressed as the measurement made in the treated group (T) divided by the measurement made in the vehicle treated control group (C). The tumor model used in this assay is P388 Leukemia resistant to Dihydroxy Anthracenedione; NSC 299195 (intraperitoneal) in CD2F1 (CDF1) mice

Turning to `O=C1c2c(O)ccc(O)c2C(=O)c2c(NCCNCCO)ccc(NCCNCCO)c21`, the T/C (dose: 0.65 mg/kg/injection, schedule: Q04DX003 (ip), vehicle: saline) is 112 % of control; the T/C (dose: 0.78 mg/kg/injection, schedule: Q04DX003 (ip), vehicle: saline) was 119 % of control and 111 % of control; the T/C (dose: 1.08 mg/kg/injection, schedule: Q04DX003 (ip), vehicle: saline) is 107 % of control; the T/C (dose: 1.3 mg/kg/injection, schedule: Q04DX002 (ip), vehicle: water) was 112 % of control and 114 % of control and 100 % of control; the T/C (dose: 1.62 mg/kg/injection, schedule: Q04DX003 (ip), vehicle: saline) is 104 % of control; the T/C (dose: 2.16 mg/kg/injection, schedule: Q04DX002 (ip), vehicle: water) was 103 % of control and 120 % of control. Also, the T/C is, setting by setting: (dose: 2.7 mg/kg/injection, schedule: Q04DX003 (ip), vehicle: saline) 119 % of control; (dose: 3.6 mg/kg/injection, schedule: Q04DX002 (ip), vehicle: water) 104 % of control and 105 % of control and 97 % of control; (dose: 4.0 mg/kg/injection, schedule: Q04DX002 (ip), vehicle: water) 100 % of control; (dose: 4.5 mg/kg/injection, schedule: Q04DX003 (ip), vehicle: saline) 124 % of control; (dose: 6.0 mg/kg/injection, schedule: Q04DX002 (ip), vehicle: water) 93 % of control and 96 % of control and 97 % of control; (dose: 6.67 mg/kg/injection, schedule: Q04DX002 (ip), vehicle: water) 106 % of control. In addition, the T/C by setting is: (dose: 7.5 mg/kg/injection, schedule: Q04DX003 (ip), vehicle: saline) 120 % of control; (dose: 10.0 mg/kg/injection, schedule: Q04DX002 (ip), vehicle: water) 87 % of control and 88 % of control; (dose: 10.0 mg/kg/injection, schedule: Q04DX003 (ip), vehicle: saline) 109 % of control.

Regarding `COc1cc([C@@H]2c3cc4c(cc3[C@@H](OC3OC5COC(C)OC5C(O)C3O)[C@H]3COC(=O)[C@H]23)OCO4)cc(OC)c1O` (some centres undefined), the T/C runs as follows: (dose: 7.78 mg/kg/injection, schedule: Q04DX003 (ip), vehicle: water) 123 % of control; (dose: 13.0 mg/kg/injection, schedule: Q04DX003 (ip), vehicle: water) 124 % of control; (dose: 18.0 mg/kg/injection, schedule: Q04DX003 (ip), vehicle: clinical formulation) 155 % of control; (dose: 18.0 mg/kg/injection, schedule: Q04DX003 (ip), vehicle: water) 153 % of control; (dose: 30.0 mg/kg/injection, schedule: Q04DX003 (ip), vehicle: clinical formulation) 162 % of control; (dose: 30.0 mg/kg/injection, schedule: Q04DX003 (ip), vehicle: water) 105 % of control. Also, for the setting “dose: 50.0 mg/kg/injection, schedule: Q04DX003 (ip), vehicle: clinical formulation”, the T/C is 166 % of control.

`COc1c(O)c2c(c3cc(C(=O)N4CCc5c4c(O)c(OC)c4[nH]c(C(=O)N6CC7CC78C6=CC(=O)c6[nH]cc(C)c68)cc54)[nH]c13)CCN2C(N)=O` (centres undefined): the T/C is, setting by setting: (dose: 0.05 mg/kg/injection, schedule: Q04DX003 (ip), vehicle: DMSO) 122 % of control; (dose: 0.09 mg/kg/injection, schedule: Q04DX003 (ip), vehicle: DMSO) 119 % of control; (dose: 13.0 micrograms/kg/injection, schedule: Q01DX009 (ip), vehicle: DMSO) 100 % of control; (dose: 21.6 micrograms/kg/injection, schedule: Q01DX009 (ip), vehicle: DMSO) 96 % of control; (dose: 36.0 micrograms/kg/injection, schedule: Q01DX009 (ip), vehicle: DMSO) 94 % of control; (dose: 38.9 micrograms/kg/injection, schedule: Q04DX003 (ip), vehicle: DMSO) 114 % of control. The T/C is, setting by setting: (dose: 60.0 micrograms/kg/injection, schedule: Q01DX009 (ip), vehicle: DMSO) 93 % of control; (dose: 64.8 micrograms/kg/injection, schedule: Q04DX003 (ip), vehicle: DMSO) 114 % of control; (dose: 100.0 micrograms/kg/injection, schedule: Q01DX009 (ip), vehicle: DMSO) 94 % of control; (dose: 108.0 micrograms/kg/injection, schedule: Q04DX003 (ip), vehicle: DMSO) 121 % of control; (dose: 180.0 micrograms/kg/injection, schedule: Q04DX003 (ip), vehicle: DMSO) 105 % of control; (dose: 300.0 micrograms/kg/injection, schedule: Q04DX003 (ip), vehicle: DMSO) 102 % of control. For the setting “dose: 300.0 micrograms/kg/injection, schedule: Q04DX003 (ip), vehicle: saline”, the T/C is 100 % of control.

For the compound `CC(CN1CC(=O)NC(=O)C1)N1CC(=O)NC(=O)C1` (centres undefined), the T/C (dose: 64.8 mg/kg/injection, schedule: Q04DX003 (ip), vehicle: saline) is 101 % of control; the T/C (dose: 108.0 mg/kg/injection, schedule: Q04DX003 (ip), vehicle: saline) is 104 % of control; the T/C (dose: 180.0 mg/kg/injection, schedule: Q04DX003 (ip), vehicle: saline) was 107 % of control; the T/C (dose: 500.0 mg/kg/injection, schedule: Q04DX003 (ip), vehicle: saline) was 123 % of control.
